From ChEMBL document CHEMBL1641455, “Discovery of novel ureas and thioureas of 3-decladinosyl-3-hydroxy 15-membered azalides active against efflux-mediated resistant Streptococcus pneumoniae” (2011)
≈ marks a conversion by molar mass, not a printed value.

Key:
Type in all cases: functional
Moraxella catarrhalis = test: Antimicrobial activity against Moraxella catarrhalis ATCC 23246 after 16 to 22 hrs by broth microdilution method
Escherichia coli = test: Antimicrobial activity against Escherichia coli ATCC 25922 after 16 to 22 hrs by broth microdilution method
Streptococcus pyogenes [1] = test: Antimicrobial activity against erythromycin-susceptible Streptococcus pyogenes after 16 to 22 hrs by broth microdilution method
Enterococcus faecalis = test: Antimicrobial activity against Enterococcus faecalis ATCC 29212 after 16 to 22 hrs by broth microdilution method
Staphylococcus aureus = test: Antimicrobial activity against Staphylococcus aureus ATCC 29213 after 16 to 22 hrs by broth microdilution method
Streptococcus pneumoniae [2] = test: Antimicrobial activity against erythromycin-susceptible Streptococcus pneumoniae after 16 to 22 hrs by broth microdilution method
Haemophilus influenzae = test: Antimicrobial activity against Haemophilus influenzae ATCC 49247 after 16 to 22 hrs by broth microdilution method
Streptococcus pneumoniae [3] = test: Antimicrobial activity against macrolide-resistant erythromycin-Streptococcus pneumoniae after 16 to 22 hrs by broth microdilution method
Streptococcus pyogenes [4] = test: Antimicrobial activity against macrolide-resistant erythromycin-Streptococcus pyogenes after 16 to 22 hrs by broth microdilution method
[5] = Escherichia coli, ATCC 25922, read-out: MIC
[6] = Streptococcus pyogenes, read-out: MIC
[7] = Staphylococcus aureus, ATCC 29213, read-out: MIC
[8] = Streptococcus pneumoniae, read-out: MIC
[9] = Haemophilus influenzae, ATCC 49247, read-out: MIC

Compound | MIC (Moraxella catarrhalis) | MIC (Escherichia coli; [5]) | MIC (Streptococcus pyogenes [1]; [6]) | MIC (Enterococcus faecalis) | MIC (Staphylococcus aureus; [7]) | MIC (Streptococcus pneumoniae [2]; [8]) | MIC (Haemophilus influenzae; [9]) | MIC (Streptococcus pneumoniae [3]; [8]) | MIC (Streptococcus pyogenes [4]; [6]) | MIC (Escherichia coli) | MIC (Staphylococcus aureus) | MIC (Haemophilus influenzae) | MIC (Streptococcus pneumoniae [3]) | MIC (Streptococcus pyogenes [4]) | MIC (Streptococcus pyogenes [1]) | MIC (Streptococcus pneumoniae [2])
CC[C@H]1OC(=O)[C@H](C)[C@@H](O)[C@H](C)[C@@H](O[C@@H]2O[C@H](C)C[C@H](N(C)C)[C@H]2O)[C@](C)(O)C[C@@H](C)CN(CCCNC(=O)Nc2cccc3ccccc23)[C@H](C)[C@@H](O)[C@]1(C)O | 2 µg/mL (≈ 2.49 µM) | 8 µg/mL (≈ 9.96 µM) | 2 µg/mL (≈ 2.49 µM) | 32 µg/mL (≈ 39.8 µM) | > 64 µg/mL | 1 µg/mL (≈ 1.25 µM) | 2 µg/mL (≈ 2.49 µM) | 8 µg/mL (≈ 9.96 µM) | 16 µg/mL (≈ 19.9 µM) |  |  |  |  |  |  | 
CC[C@H]1OC(=O)[C@H](C)[C@@H](O)[C@H](C)[C@@H](O[C@@H]2O[C@H](C)C[C@H](N(C)C)[C@H]2O)[C@](C)(O)C[C@@H](C)CN(CCCNC(=S)Nc2cccc3ccccc23)[C@H](C)[C@@H](O)[C@]1(C)O | 0.5 µg/mL (≈ 0.61 µM) | 16 µg/mL (≈ 19.5 µM) | 8 µg/mL (≈ 9.77 µM) | 32 µg/mL (≈ 39.1 µM) | > 64 µg/mL | 1 µg/mL (≈ 1.22 µM) | 4 µg/mL (≈ 4.88 µM) | 2 µg/mL (≈ 2.44 µM) | 64 µg/mL (≈ 78.1 µM) |  |  |  |  |  |  | 
CC[C@H]1OC(=O)[C@H](C)[C@@H](O)[C@H](C)[C@@H](O[C@@H]2O[C@H](C)C[C@H](N(C)C)[C@H]2O)[C@](C)(O)C[C@@H](C)CN(CCCNC(=S)NCCc2ccccc2)[C@H](C)[C@@H](O)[C@]1(C)O | 4 µg/mL (≈ 5.02 µM) | 64 µg/mL (≈ 80.3 µM) | 32 µg/mL (≈ 40.1 µM) | 64 µg/mL (≈ 80.3 µM) | > 64 µg/mL | 4 µg/mL (≈ 5.02 µM) | 16 µg/mL (≈ 20.1 µM) | 16 µg/mL (≈ 20.1 µM) | 64 µg/mL (≈ 80.3 µM) |  |  |  |  |  |  | 
CC[C@H]1OC(=O)[C@H](C)[C@@H](O)[C@H](C)[C@@H](O[C@@H]2O[C@H](C)C[C@H](N(C)C)[C@H]2O)[C@](C)(O)C[C@@H](C)CN(CCCN(CCC#N)C(=O)Nc2cccc3ccccc23)[C@H](C)[C@@H](O)[C@]1(C)O | 8 µg/mL (≈ 9.34 µM) | 64 µg/mL (≈ 74.8 µM) | 16 µg/mL (≈ 18.7 µM) | > 64 µg/mL | > 64 µg/mL | 16 µg/mL (≈ 18.7 µM) | 32 µg/mL (≈ 37.4 µM) | 64 µg/mL (≈ 74.8 µM) | 64 µg/mL (≈ 74.8 µM) |  |  |  |  |  |  | 
CC[C@H]1OC(=O)[C@H](C)[C@@H](O)[C@H](C)[C@@H](O[C@@H]2O[C@H](C)C[C@H](N(C)C)[C@H]2O)[C@](C)(O)C[C@@H](C)CN(CCCN(CCC#N)C(=O)Nc2ccc3ccccc3c2)[C@H](C)[C@@H](O)[C@]1(C)O | 2 µg/mL (≈ 2.34 µM) | 16 µg/mL (≈ 18.7 µM) | 8 µg/mL (≈ 9.34 µM) | 32 µg/mL (≈ 37.4 µM) | > 64 µg/mL |  | 2 µg/mL (≈ 2.34 µM) | 4 µg/mL (≈ 4.67 µM) | 16 µg/mL (≈ 18.7 µM) |  |  |  |  |  |  | 
CC[C@H]1OC(=O)[C@H](C)[C@@H](O)[C@H](C)[C@@H](O[C@@H]2O[C@H](C)C[C@H](N(C)C)[C@H]2O)[C@](C)(O)C[C@@H](C)CN(CCCN(CCC#N)C(=O)Nc2ccc(Cl)cc2Cl)[C@H](C)[C@@H](O)[C@]1(C)O | 8 µg/mL (≈ 9.14 µM) | > 64 µg/mL | > 64 µg/mL | > 64 µg/mL | > 64 µg/mL |  | 16 µg/mL (≈ 18.3 µM) | 8 µg/mL (≈ 9.14 µM) |  |  |  |  |  |  |  | 
CC[C@H]1OC(=O)[C@H](C)[C@@H](O)[C@H](C)[C@@H](O[C@@H]2O[C@H](C)C[C@H](N(C)C)[C@H]2O)[C@](C)(O)C[C@@H](C)CN(CCCN(CCC#N)C(=S)NCc2ccccc2)[C@H](C)[C@@H](O)[C@]1(C)O | 2 µg/mL (≈ 2.39 µM) | > 64 µg/mL | > 64 µg/mL | > 64 µg/mL | > 64 µg/mL |  | 8 µg/mL (≈ 9.57 µM) | 16 µg/mL (≈ 19.1 µM) |  |  |  |  |  |  |  | 
CC[C@H]1OC(=O)[C@H](C)[C@@H](O)[C@H](C)[C@@H](O[C@@H]2O[C@H](C)C[C@H](N(C)C)[C@H]2O)[C@](C)(O)C[C@@H](C)CN(CCCN(CCC#N)C(=S)NCCc2ccccc2)[C@H](C)[C@@H](O)[C@]1(C)O | 8 µg/mL (≈ 9.41 µM) | > 64 µg/mL | > 64 µg/mL | > 64 µg/mL | > 64 µg/mL |  | 32 µg/mL (≈ 37.6 µM) | 16 µg/mL (≈ 18.8 µM) |  |  |  |  |  |  |  | 
CC[C@H]1OC(=O)[C@H](C)[C@@H](O)[C@H](C)[C@@H](O[C@@H]2O[C@H](C)C[C@H](N(C)C)[C@H]2O)[C@](C)(O)C[C@@H](C)CN(CCCN(CCC#N)C(=S)NCCCc2ccccc2)[C@H](C)[C@@H](O)[C@]1(C)O | 8 µg/mL (≈ 9.26 µM) | > 64 µg/mL | 32 µg/mL (≈ 37 µM) | > 64 µg/mL | > 64 µg/mL |  | 8 µg/mL (≈ 9.26 µM) | 16 µg/mL (≈ 18.5 µM) | 64 µg/mL (≈ 74.1 µM) |  |  |  |  |  |  | 
CC[C@H]1OC(=O)[C@H](C)[C@@H](O)[C@H](C)[C@@H](O[C@@H]2O[C@H](C)C[C@H](N(C)C)[C@H]2O)[C@](C)(O)C[C@@H](C)CN(CCCNC(=O)NC(C)c2cccc3ccccc23)[C@H](C)[C@@H](O)[C@]1(C)O (mixture of isomers) | 4 µg/mL | 16 µg/mL | < 0.125 µg/mL | 8 µg/mL | 16 µg/mL | < 0.125 µg/mL | 4 µg/mL | 16 µg/mL | 16 µg/mL |  |  |  |  |  |  | 
CC[C@H]1OC(=O)[C@H](C)[C@@H](O)[C@H](C)[C@@H](O[C@@H]2O[C@H](C)C[C@H](N(C)C)[C@H]2O)[C@](C)(O)C[C@@H](C)CN(CCCN(CCC#N)C(=O)NC(C)c2cccc3ccccc23)[C@H](C)[C@@H](O)[C@]1(C)O (mixture of isomers) | 4 µg/mL | > 64 µg/mL | 4 µg/mL | 64 µg/mL | > 64 µg/mL | 4 µg/mL | 16 µg/mL | 8 µg/mL | > 64 µg/mL |  |  |  |  |  |  | 
CC[C@H]1OC(=O)[C@H](C)[C@@H](O[C@H]2C[C@@](C)(OC)[C@@H](O)[C@H](C)O2)[C@H](C)[C@@H](O[C@@H]2O[C@H](C)C[C@H](N(C)C)[C@H]2O)[C@](C)(O)C[C@@H](C)CN(C)[C@H](C)[C@@H](O)[C@]1(C)O (stereo in doubt; 1) [AZITHROMYCIN] | < 0.125 µg/mL |  |  | 8 µg/mL (≈ 10.7 µM) |  |  |  |  |  | 2 µg/mL (≈ 2.67 µM) | 0.5 µg/mL (≈ 0.668 µM) | 1 µg/mL (≈ 1.34 µM) | 8 µg/mL (≈ 10.7 µM) | 4 µg/mL (≈ 5.34 µM) |  | 
CC[C@H]1OC(=O)[C@H](C)[C@@H](O[C@H]2C[C@@](C)(OC)[C@@H](O)[C@H](C)O2)[C@H](C)[C@@H](O[C@@H]2O[C@H](C)C[C@H](N(C)C)[C@H]2O)[C@](C)(O)C[C@@H](C)CN(C)[C@H](C)[C@@H](O)[C@]1(C)O (stereo in doubt; 2) [AZITHROMYCIN] |  |  |  |  |  |  |  |  |  | 16 µg/mL (≈ 21.4 µM) | >64 µg/mL | 16 µg/mL (≈ 21.4 µM) | >64 µg/mL | >64 µg/mL | >64 µg/mL | >64 µg/mL
